Data from PubChem BioAssay (NCI).
Several values for one entry are separate records, joined by “and”; a condition that tells them apart may be missing. Equal values may be shown once.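 Briefly, cells in 96-well plates were exposed to five compound concentrations for 48 h, and endpoints were estimated by linear interpolation. GI50 marks 50% less growth. TGI: total growth inhibition.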

How the values were obtained:
Assay in all cases: NCI-60 cell line screen, 48 h
KM12 colon = tested on: KM12 colon
SR leukemia = tested on: SR leukemia
SW-620 colon = tested on: SW-620 colon
NCI-H226 lung = tested on: NCI-H226 lung
UO-31 renal = tested on: UO-31 renal
786-0 renal = tested on: 786-0 renal
A498 renal = tested on: A498 renal
T-47D breast = tested on: T-47D breast
U251 CNS = tested on: U251 CNS

Row | Compound | GI50 (KM12 colon) [µM] | TGI (KM12 colon) | GI50 (SR leukemia) [µM] | GI50 (SW-620 colon) [µM] | TGI (SW-620 colon) | GI50 (NCI-H226 lung) [µM] | TGI (NCI-H226 lung) | GI50 (UO-31 renal) [µM] | TGI (UO-31 renal) | GI50 (786-0 renal) [µM] | GI50 (A498 renal) [µM] | TGI (A498 renal) | GI50 (T-47D breast) [µM] | GI50 (U251 CNS) [µM] | TGI (U251 CNS) | TGI (SR leukemia) [µM] | TGI (786-0 renal) | TGI (T-47D breast)
1 | COc1ccc2c(c1)C(=O)c1c-2n(CCCn2ccnc2)c(=O)c2cc([N+](=O)[O-])ccc12 | < 0.0229 | 8.69 µM | < 0.01 | < 0.0111 | > 39.9 µM | < 0.01 | 0.584 µM | < 0.01 | 0.38 µM | < 0.01 | < 0.01 | 0.184 µM | < 0.01 | < 0.01 | 0.166 µM |  |  | 
2 | O=S(=O)(NC1=NCCN1C(=S)SN1CCn2c1nsc2=S)c1cccc(Cl)c1 | 16.6 | 34.1 µM | 4.89 | 22.9 | > 100 µM | 19 | 55.7 µM | 14.4 | 28.6 µM | 19.9 | 34.3 | 81.5 µM | 6.81 | 13.6 | 27.8 µM | 50.7 | 55.3 µM | 25.7 µM
3 | COC(=O)Nc1nc2ccc(Oc3ccc(NC(=O)Nc4cc(C(F)(F)F)ccc4F)cc3)cc2s1 | 0.0859 | > 25 µM | 5.66 | 9.85 | > 25 µM | > 25 | > 25 µM | > 25 | > 25 µM | > 25 |  | > 25 µM | > 18 | 13.6 | > 25 µM | > 25 | > 25 µM | > 25 µM
4 | O=C1c2cccc([N+](=O)[O-])c2C(=O)N1c1ncn[nH]1 |  | > 100 µM |  |  | > 100 µM |  | > 100 µM |  | > 100 µM |  |  | > 100 µM |  |  | > 100 µM | > 100 | > 100 µM | > 100 µM
5 | CCCCCCCCn1ccc2cc(NC(=O)Cn3cc(CN4CCCC4)nn3)ccc21 | 1.95 | 3.98 µM | 2.3 | 1.86 | 3.6 µM | 1.59 | 3.16 µM | 1.54 | 2.88 µM | 1.69 | 1.7 | 3.35 µM | 1.73 | 1.7 | 3.16 µM | 6.34 | 3.13 µM | 3.76 µM
6 | C=C(C[C@](O)(C(=O)/C=C/c1ccc(Cl)cc1)C(=O)OC)c1ccccc1 | 1.81 | 4.24 µM | 1.59 | 2.05 | 5.04 µM | 3.48 | 16.3 µM | 1.56 | 3.2 µM | 1.66 | 11.6 | 23.8 µM | 1.29 | 1.85 | 3.74 µM | 7.7 | 3.24 µM | 3.65 µM
7 | COc1ccc(-c2nc(-c3nc4ccc(Cl)cc4[nH]3)c3ccccn23)cc1 | 7.68 | > 100 µM | 12.6 | 4.07 | 22.5 µM | 1.94 | 4.46 µM | 1.74 | 4.11 µM | 1.6 | 5.61 | 29.2 µM | 3.66 | 3.16 | 11.3 µM | > 100 | 3.22 µM | 20.2 µM
8 | NC(=O)NS(=O)(=O)c1ccc(N2N=C(C(F)(F)F)CC2c2cc(C(F)(F)F)cc(C(F)(F)F)c2)cc1 (configuration not stated) | 1.83 | 4.65 µM | 3.08 | 4.1 | 15.7 µM | 7.21 | 21.8 µM | 0.0862 | 13.2 µM | 7.14 | 2.24 | 8.15 µM | 3.73 | 3.94 | 15.2 µM | > 100 | 22.7 µM | 17.2 µM
9 | O=C(Nc1ccncc1)C(=O)c1cn(S(=O)(=O)c2cccc(F)c2)c2ccccc12 | 3.04 | > 100 µM | 0.552 | 3.02 | > 100 µM | 16.9 | > 100 µM | 6.15 | > 100 µM | 3.64 | 13.4 | 97 µM | 4.25 | 4.38 | > 100 µM | > 100 | > 100 µM | > 100 µM
10 | Nc1nc2c(nnn2C2CC(O)C(CO)O2)c(=O)[nH]1 (configuration not stated) | 5.39 | > 100 µM | 2.54 | 3.74 | > 100 µM | 8.75 | > 100 µM | 3.96 | > 100 µM | 2.99 | 8.22 | > 48.1 µM | 4.59 | 9.66 | > 100 µM | > 76.2 | > 100 µM | > 65.1 µM
11 | O=C1C(Cl)=C(NCCN2CCOCC2)C(=O)c2ncccc21 | 3.55 | 3.1 µM and 16.1 µM | 2.01 | 2.45 | 6.42 µM and 6.22 µM |  | 5.14 µM and 3.74 µM | 1.28 | 3.03 µM and 2.61 µM | 2.5 | 1.91 | 7.65 µM and 10.9 µM | 1.83 | 1.87 | 3.12 µM and 3.3 µM | 5.61 | 2.81 µM and 7.83 µM | 5.74 µM and 4.49 µM
12 | CC[C@@]1(c2ccccc2)C2=C(CC(C)(C)CC2=O)Nc2[nH]ncc21 | > 100 | > 100 µM | > 100 | > 100 | > 100 µM | > 100 | > 100 µM | > 100 | > 100 µM | > 100 | 16.7 | 56.3 µM | > 100 | > 100 | > 100 µM | > 100 | > 100 µM | > 100 µM
13 | CCOCC(=O)N[C@H]1CCc2cc(OC)c(OC)c(OC)c2-c2ccc(OC)c(=O)cc21 |  | 0.0334 µM |  |  | > 100 µM |  | 2.52 µM |  | > 100 µM |  |  | 8.87 µM |  |  | 8.9 µM | > 100 | > 100 µM | > 100 µM
14 | O=C(O)CCNC1CCCCC1 | > 100 | > 100 µM | > 100 | > 100 | > 100 µM | > 100 | > 100 µM | > 100 | > 100 µM | > 100 | > 100 | > 100 µM | > 100 | > 100 | > 100 µM | > 100 | > 100 µM | > 100 µM
15 | COc1cc2ncn(-c3cc(OCc4cccs4)c(C(N)=O)s3)c2cc1OC | 0.772 | > 17.5 µM | 1.48 | 1.04 | > 20.3 µM | 7.13 | > 25 µM | 2.77 | > 25 µM | 4.86 | 1.25 | 16.9 µM | 6.4 | 1.48 | > 25 µM | > 25 | > 25 µM | > 25 µM
16 | O=C(O)C(=Cc1ccc(-c2ccccc2)cc1)C(=O)O |  | 40.9 µM |  |  | 97.5 µM |  | 48.4 µM |  | 27.6 µM |  |  | 40 µM |  |  | 25.9 µM | 14.7 | 41.4 µM | 34 µM
17 | COc1cc[nH]c1/C=C1\C(=O)Nc2ccc(F)c(C#CC3(O)CCNCC3)c21 | 0.0025 | 0.726 µM | 0.00864 | 0.0832 | 2.67 µM | 0.138 | 0.92 µM | 0.119 | 2.19 µM | 0.106 | 0.108 | 0.568 µM | 0.819 | 0.0736 | 0.984 µM | 0.141 | 1.68 µM | 2.59 µM
18 | CCN(CC)CCCC(C)Nc1c2ccc(Cl)cc2nc2ccc(O)cc12 (configuration not stated) | 2.39 | 10.5 µM | 2.07 | 1.16 | 4.13 µM | 2.53 | 8.99 µM | 1.18 | 2.65 µM | 2.77 | 0.457 | 18.2 µM | 3 | 2.49 | 11.4 µM | 7.11 | 11.9 µM | 11.6 µM
19 | COc1cc(C(=O)CBr)c(OC)cc1C |  | > 100 µM |  |  | > 100 µM |  | > 100 µM |  | > 100 µM |  |  | > 100 µM |  |  | > 100 µM | > 100 | > 100 µM | > 100 µM
20 | CC/C=C\C[C@@H](O)C/C=C1/C(=O)C=C[C@H]1C/C=C\CCCC(=O)OC | 1.65 | 3.84 µM | 0.686 | 2.84 | 8.6 µM | 2.14 | 5.04 µM | 1.73 | 3.34 µM | 3.29 | 14.6 | 28.1 µM | 4.05 | 3.18 | 10.5 µM | 4 | 11.5 µM | 19 µM
21 | Cc1cc2c(cc1Cl)SC1=NN(C)S(=O)N1S2(=O)=O (configuration not stated) | > 100 | > 100 µM | > 100 | > 100 | > 100 µM | > 100 | > 100 µM | 65.9 | > 100 µM | > 100 | 99.5 | > 100 µM | > 100 | > 100 | > 100 µM | > 100 | > 100 µM | > 100 µM
22 | Cc1ccc(-c2nc3nc(-c4ccccc4)nc(N4CCCNCC4)c3o2)cc1 | 1.77 | 3.41 µM | 0.222 | 1.55 | 3.17 µM | 1.87 | 3.86 µM | 1.55 | 2.96 µM | 1.52 | 1.53 | 3.13 µM | 1.73 | 1.54 | 2.91 µM | 0.554 | 2.97 µM | 3.5 µM
23 | C[N+]1=C(/C=C/c2ccc(O)c3ncccc23)C(C)(C)c2ccccc21 | 2.97 | 10.5 µM | 2.13 | 2.85 | 11.1 µM | 3.26 | 12.9 µM | 0.58 | 5.73 µM | 3.57 | 1.97 | 11 µM | 2.94 | 2.4 | 17.1 µM | 15 | 13 µM | 14.2 µM
24 | O=C(O)c1nn(-c2ccccc2-c2n[nH]c(=O)[nH]c2=O)c(=O)[nH]c1=O |  | > 100 µM |  |  | > 100 µM |  | > 100 µM |  | > 100 µM |  |  | > 100 µM |  |  | > 100 µM | > 100 | > 100 µM | > 100 µM
